Laboratory results taken from patent US10000467B2, “Cyanine compounds” (Pierce Biotechnology, Inc., priority 2012, dated 2018).

Tests used:
[1] = system: protein disulphide isomerase (PDI); test: Immunofluorescence in U2OS cells, mouse-anti-PDI primary antibody; format: cell-based, human; conditions: FIGS. 17-19; GAM conjugates at 2.5×-15× molar excess
Description: (§1) The inventive compounds and commercial dye were evaluated for immunofluorescence in cell based assays using the following protocol. Plates containing U2OS cells (human osteosarcoma cell line) were fixed in 4% paraformaldehyde in PBS/0.1% Triton X-100 for 15 min at room temperature. The cells were then […] with 2% BSA in PBS/0.1% Triton X-100 for 15 min at room temperature. Negative controls contain only 2% BSA/PBS-0.1% Triton-X100 blocker. Diluted primary antibodies, mouse-anti-protein disulphide isomerase (PDI) or rabbit-anti-HDAC2, diluted in 2% BSA/PBS-0.1% Triton-X100 were added to the plates and incubated for one hour at room temperature. Negative controls contain only 2% BSA/PBS-0.1% Triton-X100 blocker. The plates were washed 3×100 μl with PBS. Based on the calculated protein concentrations, the conjugates made in Example 22 were diluted to 4 μg/ml in PBS/0.1% Triton X-100 and added to the plates (50 μl/well) and incubated one hour in the dark at room temperature. After incubation, the […] antibody solution was removed from the plates, and the plates were washed 3×100 μl with PBS. One hundred μl of 0.1 μg/ml Hoechst dye in PBS was added per well. The plates were then scanned on an ArrayScan® Plate Reader for imaging and quantitation.

HDAC2 = test: Immunofluorescence in U2OS cells, rabbit-anti-HDAC2 primary antibody; format: cell-based, human
Description: as §1

[2] = FIGS. 20-22, GAR conjugates purified with 200 μl of resin/mg of protein

Q: What does the source list for Alexa Fluor 647?
A: Fluorescence intensity (Mean Total Intensity) [1]: highest binding intensity at 2.5× dye molar excess; Quenching [1]: significant quenching above 2.5× molar excess; Quenching (HDAC2; FIGS. 14-16, GAR conjugates at 2.5×-15× molar excess): significant quenching at high molar excesses; Fluorescence intensity (Mean Total Intensity) (HDAC2; [2]): highest binding intensity at 2.5× dye molar excess; Quenching (HDAC2; [2]): significant quenching above 2.5× molar excess
